Assay results as given in US6780619B2, “D-aminoacylase and gene encoding the same” (priority 2000, dated 2004).

How the values were obtained:
D-aminoacylase [1] = assay: Substrate specificity of the D-aminoacylase (amino acid produced, assayed by TNBS or HPLC method); format: biochemical, Hypomyces mycophilus; settings: for catalytic activity of the D-aminoacylase for the substrate: 20 mM substrate, 50 mM Tris-HCl pH 7.5, 30° C., 20 minutes; for substrate specificity: the enzyme acts on / not on the substrate: purified enzyme, property (c)
Description: The substrate specificity of the D-aminoacylase of the present invention can be tested by the following procedure. For example, an enzyme solution (1 μl) is mixed and incubated with 50 mM Tris-HCl (pH 7.5) buffer (total volume: 1.0 ml) containing 20 mM substrate (various N-acetyl-D-amino acids) at 30° C. for 20 minutes. By measuring the amounts of amino acid synthesized by this reaction, enzymatic activities for respective substrates can be compared with each other. Assay for amino acid is performed by TNBS (trinitrobenzenesulfonic acid) method or HPLC method. For example, D-tryptophan, which may be used as a standard product in the reaction, is assayed for a comparison of enzymatic activity; by taking the amount of enzyme required for the production of 1 μmol D-tryptophan as 1 unit (or U), the reactivity is compared between different enzymes or is compared with the reactivity assayed for other types of amino acids.

[2] = in vivo; cited from earlier work
D-aminoacylase [3] = assay: Stabilizer/activator effect on D-aminoacylase activity; format: biochemical, Hypomyces mycophilus
Excerpt: (f) stabilizer: the enzyme activity is stabilized by reducing agents and activated by ICH2CONH2.

[4] = Optimal reaction temperature of the purified D-aminoacylase; format: biochemical, Hypomyces mycophilus; settings: reaction at pH 7.5
Description: (e) optimal temperature: for the reaction at pH 7.5, the enzyme activity is optimal at about 45° C.; and […]

Molecule	catalytic activity of the D-aminoacylase for the substrate (D-aminoacylase [1])	substrate specificity: the enzyme acts on / not on the substrate (D-aminoacylase [1])	also measured
CC(=O)N[C@H](CC(C)C)C(=O)O [N-acetyl-D-leucine]	efficiently catalyzes the reaction	acts on	–
CSCC[C@@H](NC(C)=O)C(=O)O [N-acetyl-D-methionine]	efficiently catalyzes the reaction	acts on	–
O=C1CCC(N2C(=O)c3ccccc3C2=O)C(=O)N1 [L(S)-form, thalidomide]	–	–	teratogenic activity [2]: strong teratogenicity
CC(=O)N[C@@H](Cc1c[nH]c2ccccc12)C(=O)O [N-acetyl-L-tryptophan]	substantially no catalytic activity	not on	–
CC(=O)N[C@H](C(=O)O)C(C)C [N-acetyl-L-valine]	substantially no catalytic activity	not on	–
CSCC[C@H](NC(C)=O)C(=O)O [N-acetyl-L-methionine]	substantially no catalytic activity	not on	–
O=C(CCl)N[C@H](Cc1ccccc1)C(=O)O [N-chloroacetyl-D-phenylalanine]	very efficiently catalyzes the reaction	–	–
CC(=O)N[C@@H](Cc1ccccc1)C(=O)O [N-acetyl-L-phenylalanine]	substantially no catalytic activity	not on	–
O=C1CCC(N2C(=O)c3ccccc3C2=O)C(=O)N1 [D(R)-form thalidomide, thalidomide]	–	–	teratogenic activity [2]: no teratogenic activity
NC(=O)CI [ICH2CONH2]	–	–	effect on D-aminoacylase enzyme activity (D-aminoacylase [3]): activated
CC(=O)N[C@@H](CC(C)C)C(=O)O [N-acetyl-L-leucine]	substantially no catalytic activity	not on	–
CC(=O)N[C@H](Cc1c[nH]c2ccccc12)C(=O)O [N-acetyl-D-tryptophan]	efficiently catalyzes the reaction	acts on	–
CC(=O)N[C@@H](C(=O)O)C(C)C [N-acetyl-D-valine]	catalyzes the reaction	acts on	–
CC(=O)N[C@H](Cc1ccccc1)C(=O)O [N-acetyl-D-phenylalanine]	very efficiently catalyzes the reaction	acts on	–
D-aminoacylase: D-aminoacylase purified from Hypomyces mycophilus IFO 6785, comprising the amino acid sequence of SEQ ID NO: 2 (protein) MRTEILFHSATVITGDEAAQPFVADVLVSKGLIAKIGNPGSINATPDTRHLDVTGYILSPGFIDMHAHSDLYLLSHPDHEAKITQGCTTEVVGQDGISYAPIRNVDQLRAIREQIAGWNGNPTDEECRTTLKGVGMFEWQTIGEYLDCLERNRTATNVAMLVPQGNLRLLACGPYDTPASAEEIQDQIQLLREAMAQGAVGMSSGLTYTPGMYASTSELASLCAALAQEFPGAFYAPHHRSYGFQAIESYAEMLDLGESTGCPIHLTHATLNFSENKGKAPVLISMVDKSLAAGVDVTLDTYPYLPGCTTLAALLPSWASAGGPQETLKRLEDAESREKIRIAVEIKGCDGGHGIPTNWDEIQIGTTNEPSIASYSGRRLSEVAQSVGKPTIEVFFEILQKDKLATSCIMHVGNEENVRQIMQHRVHMAGSDGILHGQTLHPRAYGTFTRYLGHYSRELSLVALPSMIAHLTSRPAKRLSVYPYRGLIAEGSAADIVVFNPETVKDMSTYEEPKVPSRGIRFVLVNGQIAVDEGKMTGTRGGKTLRRSTDGKVKARDE	–	–	optimal temperature of enzyme activity [4]: about 45 °C
